According to ChEMBL document CHEMBL3120129, “Enantiomeric atropisomers inhibit HCV polymerase and/or HIV matrix: characterizing hindered bond rotations and target selectivity” (J Med Chem, 2014):

Key:
[1] = Inhibition of HIV1 NL-4.3 matrix (1 to 132) expressed in BL21(DE3) cells using [PI(4,5)P2]2 as substrate after 30 mins by fluorescence polarization assay; design: species or system Human immunodeficiency virus 1
Hepatitis C virus = assay: Antiviral activity against HCV genotype 1b by HCV replicon assay; type: functional, organism-based, Hepacivirus hominis
[2] = Inhibition of HCV genotype 1b hexa-histidine-tagged NS5B polymerase expressed in baculovirus infected cell system; design: species or system Hepatitis C virus subtype 1b
[3] = system: Human immunodeficiency virus 1; assay: Antiviral activity against HIV1 NL-4.3; type: functional, organism-based; conditions: Human immunodeficiency virus 1, NL-4.3
[4] = Apparent half life of the compound assessed as atropisomer interconversion by HPLC analysis; type: physicochemical; conditions: read-out: t1/2(app)

Row | Structure (SMILES) | IC50 [1] [nM] | EC50 (Hepatitis C virus) [nM] | IC50 [2] [nM] | EC50 [3] [nM] | half-life [4] [h]
1 | CN(c1ccc(Oc2ccccc2C(F)(F)F)cc1C(=O)O)C(=O)[C@H]1CC[C@H](C)CC1 | > 100000 | 1100 | 200 |  | 
2 | COc1ccc(C(=O)Nc2ccc(Oc3ccc(N(C(=O)[C@H]4CC[C@H](C)CC4)C(C)C)c(C(=O)O)c3)cc2)cc1 | 3400 | 950 | 630 | 2800 | 
3 | CC(C)N(c1cc(F)c(Oc2ncc(CCn3nccn3)cc2C(F)(F)F)cc1C(=O)O)C(=O)[C@H]1CC[C@H](C)CC1 |  |  | 68 |  | 
4 | COC[C@H](C)N(c1ccc(Oc2ncc(CCn3nccn3)cc2C(F)(F)F)c(F)c1)C(=O)[C@H]1CC[C@H](C)CC1 |  |  | 56000 |  | 
5 | COC[C@H](C)N(c1cc(F)c(Oc2ncc(CCn3nccn3)cc2C(F)(F)F)cc1C(=O)O)C(=O)[C@H]1CC[C@H](C)CC1 |  |  | 68 |  | 
6 | C[C@H]1CC[C@H](C(=O)Nc2ccc(Oc3ccccc3C(F)(F)F)cc2C(=O)O)CC1 | > 95000 |  | 15000 |  | 
7 | Cc1cc(OCc2cnc(Oc3ccc(N(C(=O)[C@H]4CC[C@H](C)CC4)C(C)C)c(C(=O)O)c3)c(C(F)(F)F)c2)c2ccccc2n1 |  |  |  |  | 1.15
8 | CC(C)N(c1ccc(Oc2ccccc2C(F)(F)F)cc1C(=O)O)C(=O)[C@H]1CC[C@H](C)CC1 | > 175000 |  | 190 |  | 
